Tests used:
CBL-B protein = CBL-B protein (Homo sapiens, UniProt Q13191); experiment: CBL-B binding experiment (Streptavidin-Tb cryptate / Ligand L1 displacement); settings: 8 nM CBL-B protein, 25° C., 60 minutes; Ki=Relative IC50/2
Summary of the method: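 Compounds in a 10-point DMSO series met 8 nM CBL-B protein in HEPES pH 7.5/NaCl/Triton/TCEP/BSA buffer at 25° C. for 60 min. A further 60 min at room temperature preceded the luminescence read, normalised to no-protein and DMSO wells. Ki was taken as relative IC50 divided by 2.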

[1] = test system: anti-CD3 activated human PBMCs; experiment: Effect of compounds on the level of IL-2 secretion by anti-CD3 activated human PBMCs (IL-2 ELISA); format: cell-based; settings: compound concentration at which fold change in IL-2 = 5; hPBMCs, CD3 antibody 2 μg/mL, 48 h, compound from 3 μM
Experimental: 2. Inoculate the resuspended cells into a 96-well cell culture plate at 200 ul/well of cell suspension, and incubate in a 37° C. cell incubator for 1 h;
3. Adjust the compound concentration with DMSO, starting at a final concentration of 3 μM, and perform a 3-fold dilution sequentially for 10 concentration gradients, with an additional DMSO control well set up; and
4. Adjust the CD3 antibody to an appropriate concentration to achieve a final concentration of 2 μg/mL, mix thoroughly, and incubate in a 37° C. cell incubator for 48h.
5. After 48 h, centrifuge at 1500 rpm for 5 min to collect the supernatant of the culture medium for the human IL-2 ELISA test.
The OD values obtained from the ELISA test are converted into the fold change (FC) in IL-2 concentration. […] The EC50 is calculated using GraphPad Prism. When the fold change=5, the corresponding compound concentration is CFC=5 (in nM).

CBL-B protein, sequence (Q13191 whole entry): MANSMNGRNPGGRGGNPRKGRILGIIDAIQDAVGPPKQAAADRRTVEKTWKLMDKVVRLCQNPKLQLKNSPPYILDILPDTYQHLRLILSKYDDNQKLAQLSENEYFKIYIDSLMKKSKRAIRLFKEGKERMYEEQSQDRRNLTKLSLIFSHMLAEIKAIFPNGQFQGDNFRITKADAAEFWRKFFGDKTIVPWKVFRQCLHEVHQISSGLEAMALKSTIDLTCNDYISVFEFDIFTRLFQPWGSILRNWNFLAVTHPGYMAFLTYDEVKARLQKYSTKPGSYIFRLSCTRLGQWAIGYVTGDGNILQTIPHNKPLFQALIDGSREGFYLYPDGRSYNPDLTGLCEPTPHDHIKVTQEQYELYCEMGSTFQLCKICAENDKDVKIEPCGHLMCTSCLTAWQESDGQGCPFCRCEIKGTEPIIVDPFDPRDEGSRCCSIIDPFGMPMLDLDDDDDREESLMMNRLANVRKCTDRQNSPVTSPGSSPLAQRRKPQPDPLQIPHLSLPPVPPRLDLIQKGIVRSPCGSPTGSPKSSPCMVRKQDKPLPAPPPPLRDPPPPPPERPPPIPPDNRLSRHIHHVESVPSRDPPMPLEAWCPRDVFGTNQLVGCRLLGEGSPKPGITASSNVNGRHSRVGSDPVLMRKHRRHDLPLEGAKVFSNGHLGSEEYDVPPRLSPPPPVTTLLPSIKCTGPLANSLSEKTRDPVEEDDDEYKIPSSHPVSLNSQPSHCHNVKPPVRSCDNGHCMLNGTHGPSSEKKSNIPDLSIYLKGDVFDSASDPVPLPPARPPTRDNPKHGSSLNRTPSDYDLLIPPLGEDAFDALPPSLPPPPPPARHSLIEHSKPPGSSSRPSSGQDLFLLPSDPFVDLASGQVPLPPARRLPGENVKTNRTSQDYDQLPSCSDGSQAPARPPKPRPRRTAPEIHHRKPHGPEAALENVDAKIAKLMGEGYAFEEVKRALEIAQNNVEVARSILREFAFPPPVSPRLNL

Compound	Ki (CBL-B protein) [nM]	IL-2 CFC=5/nM [1] [nM]
Cn1cnnc1C1(c2cccc(-n3cc(C(F)(F)F)c4cc(CN5CC[C@H]6C[C@H]6C5)[nH]c4c3=O)c2)CCC1 [Compound T024, 2-[[(1R,6R)-3-azabicyclo[4.1.0]heptan-3-yl]methyl]-6-[3-[1-(4-methyl-1,2,4-triazol-3-yl)cyclobutyl]phenyl]-4-(trifluoromethyl)-1H-pyrrolo[2,3-c]pyridin-7-one]	< 50	<500
Cn1cnnc1C1(c2cccc(-n3cc(C(F)(F)F)c4cc(CN5CCC[C@@H]6C[C@@H]65)[nH]c4c3=O)c2)CCC1 [Compound T027, 2-(((1 S,6R)-2-azabicyclo [4.1.0]heptan-2-yl)methyl)-6-(3-(1-(4-methyl-4H-1,2,4-triazol-3-yl)cyclobutyl)phenyl)-4-(trifluoromethyl)-1,6-dihydro-7H-pyrrolo[2,3-c]pyridin-7-one]	< 50	<500
C[C@H]1CCCN(Cc2cc3c(C4CC4)cn(-c4cccc(C5(c6nncn6C)CC6(CC6)C5)c4)c(=O)c3[nH]2)C1 [Compound T030, 4-cyclopropyl-2-[[(3S)-3-methyl-1-piperidyl]methyl]-6-[3-[5-(4-methyl-1,2,4-triazol-3-yl)spiro[2.3]hexan-5-yl]phenyl]-1H-pyrrolo[2,3-c]pyridin-7-one]	< 50	<500
Cn1cnnc1C1(c2cccc(-n3cc(C(F)(F)F)c4cc(CNCCC5CCC5)[nH]c4c3=O)c2)CCC1 [Compound T034, 2-(((2-cyclobutylethyl)amino)methyl)-6-(3-(1-(4-methyl-4H-1,2,4-triazol-3-yl)cyclobutyl)phenyl)-4-(trifluoromethyl)-1,6-dihydro-7H-pyrrolo[2,3-c]pyridin-7-one]	< 50	<500
Cn1cnnc1[C@]1(c2cccc(-n3cc(C(F)(F)F)c4cc(CNC5(C)CCC5)[nH]c4c3=O)c2)C[C@H](C)C1 [Compound T035, 6-(3-((1s,3s)-3-methyl-1-(4-methyl-4H-1,2,4-triazol-3-yl)cyclobutyl)phenyl)-2-(((1-methylcyclobutyl)amino)methyl)-4-(trifluoromethyl)-1,6-dihydro-7H-pyrrolo[2,3-c]pyridin-7-one]	< 50	<500
C[C@H]1CCCN(Cc2cc3c(C4CC4)cn(-c4cccc([C@]5(Cc6nncn6C)C[C@H](C)C5)c4)c(=O)c3[nH]2)C1 [Compound T037, 4-cyclopropyl-6-(3-((1s,3R)-3-methyl-1-((4-methyl-4H-1,2,4-triazol-3-yl)methyl)cyclobutyl)phenyl)-2-(((S)-3-methylpiperidin-1-yl)methyl)-1,6-dihydro-7H-pyrrolo[2,3-c]pyridin-7-one]	< 50	<500
CCC(C)CN(C)Cc1cc2c(C(F)(F)F)cn(-c3cccc(C4(c5nncn5C)CCC4)c3)c(=O)c2[nH]1 (stereo not shown) [Compound T040, 2-[[methyl(2-methylbutyl)amino]methyl]-6-[3-[1-(4-methyl-1,2,4-triazol-3-yl)cyclobutyl]phenyl]-4-(trifluoromethyl)-1H-pyrrolo[2,3-c]pyridin-7-one]	< 50	<500
CCN(Cc1cc2c(C(F)(F)F)cn(-c3cccc(C4(c5nncn5C)CCC4)c3)c(=O)c2[nH]1)CC(C)C [Compound T041, 2-[[ethyl(isobutyl)amino]methyl]-6-[3-[1-(4-methyl-1,2,4-triazol-3-yl)cyclobutyl]phenyl]-4-(trifluoromethyl)-1H-pyrrolo[2,3-c]pyridin-7-one]	< 50	<500
CCCN(Cc1cc2c(C(F)(F)F)cn(-c3cccc(C4(c5nncn5C)CCC4)c3)c(=O)c2[nH]1)C(C)C [Compound T042, 2-[[isopropyl(propyl)amino]methyl]-6-[3-[1-(4-methyl-1,2,4-triazol-3-yl)cyclobutyl]phenyl]-4-(trifluoromethyl)-1H-pyrrolo[2,3-c]pyridin-7-one]	< 50	<500
C[C@H](NCc1cc2c(C(F)(F)F)cn(-c3cccc(C4(c5nncn5C)CCC4)c3)c(=O)c2[nH]1)C(C)(C)C [Compound T043, (S)-2-(((3,3-dimethylbutan-2-yl)amino)methyl)-6-(3-(1-(4-methyl-4H-1,2,4-triazol-3-yl)cyclobutyl)phenyl)-4-(trifluoromethyl)-1,6-dihydro-7H-pyrrolo[2,3-c]pyridin-7-one]	< 50	<500
Cn1cnnc1[C@]1(c2cccc(-n3cc(C(F)(F)F)c4cc(CNCCC5CC5)[nH]c4c3=O)c2)C[C@H](C)C1 [Compound T045, 2-(((2-cyclopropylethyl)amino)methyl)-6-(3-((1s,3s)-3-methyl-1-(4-methyl-4H-1,2,4-triazol-3-yl)cyclobutyl)phenyl)-4-(trifluoromethyl)-1,6-dihydro-7H-pyrrolo[2,3-c]pyridin-7-one]	< 50	<500
Cn1cnnc1[C@]1(c2cccc(-n3cc(C(F)(F)F)c4cc(CN5CC[C@H](F)C5)[nH]c4c3=O)c2)C[C@H](C)C1 [Compound T047, 2-(((S)-3-fluoropyrrolidin-1-yl)methyl)-6-(3-((1s,3R)-3-methyl-1-(4-methyl-4H-1,2,4-triazol-3-yl)cyclobutyl)phenyl)-4-(trifluoromethyl)-1,6-dihydro-7H-pyrrolo[2,3-c]pyridin-7-one]	< 50	<500
Cn1cnnc1C1(c2cccc(-n3cc(C(F)(F)F)c4cc(CN5CC6CCC(C6)C5)[nH]c4c3=O)c2)CCC1 [Compound T053, 2-(3-azabicyclo[3.2.1]octan-3-ylmethyl)-6-[3-[1-(4-methyl-1,2,4-triazol-3-yl)cyclobutyl]phenyl]-4-(trifluoromethyl)-1H-pyrrolo[2,3-c]pyridin-7-one]	< 50	<500

More lines, main results first:

Ki (CBL-B protein) [nM]	Compound	IL-2 CFC=5/nM [1] [nM]
< 50	Cn1cnnc1C1(c2cccc(-n3cc(C(F)(F)F)c4cc(CN5CC[C@@H]6C[C@@H]6C5)[nH]c4c3=O)c2)CCC1 [Compound T025, 2-[[(1 S,6S)-3-azabicyclo[4.1.0]heptan-3-yl]methyl]-6-[3-[1-(4-methyl-1,2,4-triazol-3-yl)cyclobutyl]phenyl]-4-(trifluoromethyl)-1H-pyrrolo[2,3-c]pyridin-7-one]	<500
< 50	Cn1cnnc1C1(c2cccc(-n3cc(C(F)(F)F)c4cc(CN5CCC[C@H]6C[C@H]65)[nH]c4c3=O)c2)CCC1 [Compound T026, 2-(((1R,6S)-2-azabicyclo [4.1.0]heptan-2-yl)methyl)-6-(3-(1-(4-methyl-4H-1,2,4-triazol-3-yl)cyclobutyl)phenyl)-4-(trifluoromethyl)-1,6-dihydro-7H-pyrrolo[2,3-c]pyridin-7-one]	<500
< 50	Cn1cnnc1[C@]1(c2cccc(-n3cc(C(F)(F)F)c4cc(CN5CC6CC6C5)[nH]c4c3=O)c2)C[C@H](C)C1 (stereo partly shown) [Compound T028, 2-((3-azabicyclo[3.1.0]hexan-3-yl)methyl)-6-(3-((1s,3s)-3-methyl-1-(4-methyl-4H-1,2,4-triazol-3-yl)cyclobutyl)phenyl)-4-(trifluoromethyl)-1,6-dihydro-7H-pyrrolo[2,3-c]pyridin-7-one]	<500
< 50	CCCN(Cc1cc2c(C(F)(F)F)cn(-c3cccc([C@]4(c5nncn5C)C[C@@H](C)C4)c3)c(=O)c2[nH]1)C(C)C [Compound T029, 2-((isopropyl(propyl)amino)methyl)-6-(3-((1s,3s)-3-methyl-1-(4-methyl-4H-1,2,4-triazol-3-yl)cyclobutyl)phenyl)-4-(trifluoromethyl)-1,6-dihydro-7H-pyrrolo[2,3-c]pyridin-7-one]	<500
< 50	C[C@H]1CCCN(Cc2cc3c(C(F)(F)F)cn(-c4cccc(C5(c6nncn6C)CCC5)c4)c(=O)c3[nH]2)C1 [Compound T033, 2-[[(3S)-3-methyl-1-piperidyl]methyl]-6-[3-[1-(4-methyl-1,2,4-triazol-3-yl)cyclobutyl]phenyl]-4-(trifluoromethyl)-1H-pyrrolo[2,3-c]pyridin-7-one]	<500
< 50	Cn1cnnc1C1(c2cccc(-n3cc(C(F)(F)F)c4cc(CN5CCC[C@H](O)C5)[nH]c4c3=O)c2)CCC1 [Compound T038, 2-[[(3S)-3-hydroxy-1-piperidyl]methyl]-6-[3-[1-(4-methyl-1,2,4-triazol-3-yl)cyclobutyl]phenyl]-4-(trifluoromethyl)-1H-pyrrolo[2,3-c]pyridin-7-one]	<500
< 50	Cn1cnnc1C1(c2cccc(-n3cc(C(F)(F)F)c4cc(CN5CCCC6(CC6)C5)[nH]c4c3=O)c2)CCC1 [Compound T054, 2-(5-azaspiro[2.5]octan-5-ylmethyl)-6-[3-[1-(4-methyl-1,2,4-triazol-3-yl)cyclobutyl]phenyl]-4-(trifluoromethyl)-1H-pyrrolo[2,3-c]pyridin-7-one]	<500

Reference: patent publication US20260217706A1, “HETEROCYCLIC COMPOUNDS, PREPARATION METHOD THEREFOR AND USE THEREOF” (GUANGZHOU YUFAN NANTU BIOTECHNOLOGIES CO., LTD, priority 2023, published 2026)
